“Also recorded” adds a separate entry of the source.
Assays:
[1] = tested on: cyclic AMP response element binding protein (CREB); experiment: immunoblots of muscle lysates for CREB activation after PGE2 i.m. injection; type: in vivo, C57BL/6 mice; conditions: young (3 mo.) mice, PGE2 i.m., 0, 30 or 60 minutes; FIG. 2A
Method: FIGS. 2A-2C. PGE2 treatment leads to activation of CREB in muscles and 15-PGDH inhibition leads to increased mitochondrial biogenesis and function in aged muscles. (FIG. 2A) Immunoblots of muscle lysates from young (3 mo.) C57BL/6 mice injected with PGE2 i.m. after 0, 30 or 60 minutes. (FIG. 2B) Quantification of immunoblot in (FIG. 2A) (n=3 mice per timepoint). (FIG. 2B) Representative images of intermyofibrillar (IMF) mitochondria from transmission electron micrographs (TEM) of longitudinal sections of EDL muscles of young, aged vehicle and aged SW (n=3 mice per condition; total mitochondria quantified, n=1,066 young, n=1,350 aged vehicle and n=1,371 aged SW). Different magnifications are as shown: 1,500×, 3,000× and 10,000× with […] respectively: 5 μm, 2 μm and 500 nm. (FIG. 2C) Citrate synthase activity of Quadriceps (Quad) muscles (n=13 aged vehicle and n=8 aged SW). *P<0.05, **P<0.01. ANOVA test with Fisher's LSD for multiple comparisons (FIG. 2B); unpaired t-test (FIG. 2C). Means±s.e.m.
To identify downstream signaling pathways through which 15-PGDH inhibition exerts its effects on aged muscles, we performed an unbiased transcriptomic analysis of aged muscles treated with vehicle or SW033291 (SW). […]

aged muscles [2] = experiment: unbiased transcriptomic analysis of aged muscles treated with vehicle or SW033291; type: in vivo, mice; conditions: FIG. 1A
Description: (§1) FIGS. 1A-1H. Boost in mitochondrial biogenesis and function is triggered by 15-PGDH inhibition in aged muscles. (FIG. 1A) Heatmap of mitochondrial genes. (FIG. 1B) Expression level of Pgc1α by qPCR (n=4 young, n=4 aged veh, n=3 aged SW033291 (SW)). (FIG. 1C) Relative quantification of mitochondrial DNA to nuclear DNA (n=4 per group). (FIG. 1D) Representative images and quantifications of intermyofibrillar (IMF) mitochondria numbers, their size, and myofibrillar width from transmission electron micrographs (TEM) of longitudinal sections of EDL muscles of young, aged vehicle and aged SW (n=3 mice per condition; total mitochondria quantified, n=1,066 young, n=1,350 aged vehicle and n=1,371 aged SW). Scale bar=2 μm. (FIG. 1E) Citrate synthase activity of Gastrocnemius muscles (n=3 young, n=4 aged vehicle and n=4 aged SW). (FIG. 1F) Representative TA cross-section stained for succinate dehydrogenase (SDH) (left). Quantification of SDH mean average intensity per fiber (n=4 mice per condition). (FIG. 1G) Representative images of mitochondrial membrane potential (TMRM staining) in isolated EDL myofibers from young, aged vehicle and SW treated mice (n=4 mice per condition; total number of fibers n=52 young, n=139 aged vehicle and n=89 aged SW). […] Quantification (right) (n=3 aged veh and SW). *P<0.05, **P<0.01, ***P<0.001, ****P<0.0001. […]

[3] = tested on: peroxisome proliferator-activated receptor gamma coactivator 1-alpha (Pgc1α); experiment: Pgc1α mRNA level by qPCR in aged muscles; type: in vivo, mice; conditions: SW vs vehicle and young, FIG. 1B
Description: as §1

aged muscles [4] = experiment: relative quantification of mitochondrial DNA to nuclear DNA in aged muscles; type: in vivo, mice; conditions: SW treatment of aged muscles; FIG. 1C
Description: as §1

[5] = tested on: intermyofibrillar (IMF) mitochondria of EDL muscles; experiment: transmission electron microscopy (TEM) of Extensor digitorum longus (EDL) muscles; type: in vivo, mice
Description: FIGS. 1A-1H. Boost in mitochondrial biogenesis and function is triggered by 15-PGDH inhibition in aged muscles. (FIG. 1A) Heatmap of mitochondrial genes. (FIG. 1B) Expression level of Pgc1α by qPCR (n=4 young, n=4 aged veh, n=3 aged SW033291 (SW)). (FIG. 1C) Relative quantification of mitochondrial DNA to nuclear DNA (n=4 per group). (FIG. 1D) Representative images and quantifications of intermyofibrillar (IMF) mitochondria numbers, their size, and myofibrillar width from transmission electron micrographs (TEM) of longitudinal sections of EDL muscles of young, aged vehicle and aged SW (n=3 mice per condition; total mitochondria quantified, n=1,066 young, n=1,350 aged vehicle and n=1,371 aged SW). Scale bar=2 μm. (FIG. 1E) Citrate synthase activity of Gastrocnemius muscles (n=3 young, n=4 aged vehicle and n=4 aged SW). (FIG. 1F) Representative TA cross-section stained for succinate dehydrogenase (SDH) (left). Quantification of SDH mean average intensity per fiber (n=4 mice per condition). (FIG. 1G) Representative images of mitochondrial membrane potential (TMRM staining) in isolated EDL myofibers from young, aged vehicle and SW treated mice (n=4 mice per condition; total number of fibers n=52 young, n=139 aged vehicle and n=89 aged SW). (FIG. 1H) Immunoblots of muscle lysates from: aged vehicle and SW treated mice together with colchicine, young mice without treatment, young mice treated with colchicine and young mice fasted and treated with colchicine. Quantification (right) (n=3 aged veh and SW). *P<0.05, **P<0.01, ***P<0.001, ****P<0.0001. ANOVA test with Tukey's test (FIG. 1D) or Fisher's LSD (FIGS. 1A, 1F, 1G) for multiple comparisons; Unpaired t-test (FIGS. 1C, 1E, 1H). Means±s.e.m.
(§2) FIGS. 2A-2C. […] (FIG. 2B) Quantification of immunoblot in (FIG. 2A) (n=3 mice per timepoint). (FIG. 2B) Representative images of intermyofibrillar (IMF) mitochondria from transmission electron micrographs (TEM) of longitudinal sections of EDL muscles of young, aged vehicle and aged SW (n=3 mice per condition; total mitochondria quantified, n=1,066 young, n=1,350 aged vehicle and n=1,371 aged SW). […]

citrate synthase = citrate synthase activity in isolated mitochondria of aged muscles; type: in vivo, mice; conditions: SW-treated aged muscles compared to controls, FIGS. 1E and 2C
Description: as §1, with “(FIG. 1F) Representative TA cross-section stained for succinate dehydrogenase (SDH) (left).” left out, “condition).” for “condition). (FIG. 1G) Representative images of mitochondrial membrane potential (TMRM staining) in isolated EDL myofibers from young, aged vehicle and SW treated mice (n=4 mice per condition; total number of fibers n=52 young, n=139 aged vehicle and n=89 aged SW).”
as §2

succinate dehydrogenase = succinate dehydrogenase (SDH) staining of TA cross-sections; type: in vivo, mice; conditions: SW treated aged muscle; FIG. 1F
Description: as §1

[6] = tested on: myofibers isolated from EDL muscles; experiment: mitochondrial membrane potential (TMRM staining) in isolated EDL myofibers; type: in vivo; conditions: myofibers from EDL muscles of SW treated aged mice compared to controls; FIG. 1G
Description: as §1

p62 = experiment: autophagy flux, western blot of p62 upon colchicine treatment; type: in vivo; conditions: muscles of aged mice treated with SW compared to controls; FIG. 1H
Description: as §1

aged muscles [7] = experiment: muscle atrophy (cross sectional area, muscle mass) in aged mice; type: in vivo; conditions: aged treated with SW compared to vehicle controls
Description: In addition, the morphology of the mitochondria improved. The shift in IMF mitochondrial area from compact and round in young to a larger size with more disorganized morphology in aged tissues was clearly evident, in agreement with reports by others (J. P. Leduc-Gaudet et al., Mitochondrial morphology is altered in atrophied skeletal muscle of aged mice. Oncotarget 6, 17923-17937 (2015); V. Romanello, M. Sandri, Mitochondrial Quality Control and Muscle Mass Maintenance. Front Physiol 6, 422 (2015)) (FIGS. 1D and 2B).

SMILES	activation of CREB in skeletal muscles [1]	components of mitochondria complexes I, II, IV and V of the electron transport chain (transcriptome) (aged muscles [2]; SW-treated aged muscles)	change in aged muscle tissue transcriptome: mitochondrial pathways (oxidative phosphorylation, ATP synthesis) (aged muscles [2]; aged muscles, SW vs vehicle)	mRNA level of Pgc1α [3]	mitochondrial DNA content relative to nuclear DNA content (aged muscles [4])	number of intermyofibrillar (IMF) mitochondria ([5]; EDL muscles of aged mice after SW treatment, FIGS. 1D and 2B)	mitochondrial morphology ([5]; aged EDL muscles, one month of SW treatment, FIG. 1D)	myofibril width ([5]; aged treated with SW compared to vehicle controls, FIGS. 1D and 2B)	citrate synthase activity (citrate synthase)	succinate dehydrogenase activity (succinate dehydrogenase)	mitochondrial membrane potential [6]	autophagy flux (p62 upon colchicine treatment) (p62)	muscle atrophy (aged muscles [7])
CCCCC[C@H](O)/C=C/[C@H]1[C@H](O)CC(=O)[C@@H]1C/C=C\CCCC(=O)O [PGE2, Prostaglandin E2]	activates	–	–	–	–	–	–	–	–	–	–	–	–
CCCC[S+]([O-])c1sc2nc(-c3cccs3)cc(-c3ccccc3)c2c1N (stereo not shown) [SW, 2-(butylsulfinyl)-4-phenyl-6-(thiophen-2-yl)thieno[2,3-b]pyridin-3-amine]	–	markedly increased	strong enrichment for mitochondrial pathways	restored to that seen in young muscles	increased	increase	restored to a compact mitochondrial morphology resembling that seen in young	increase	significantly increased; also recorded: restored to young levels	increased; also recorded: restored to young levels	increase; also recorded: restored to young levels	increased	attenuation of muscle atrophy
